# Measurements as given in patent US20240336567A1, “PESTICIDAL AND HERBICIDAL COMPOUNDS AND METHODS OF USE THEREOF” (AG Plenus Ltd, priority 2021, published 2024).
# Like-named read-outs stand apart in the source and are kept apart here.
# Experiments:
# LOLPE = test: In-planta LTP pre-emergence, visual phenotype; format: in vivo, Lolium perenne; settings: monocot
# Description: (§1) A basic panel of 8 weed species (Table 3) were sowed in 4×4×7 cm plastic pots containing inert sand (Sweet sand), intensively washed using osmosis water. Each specie was sowed in a separate pot. In each pot 10-15 seeds were sowed according to the specie viability. Sowing was performed one day before application. The plants were grown for 21 days in a controlled greenhouse (26±2° C. day 20±2° C. night). Hood irrigation (tap water+Shefer 5:3:8 8 mM) was given at a 50% water content by weight. Compounds were soluble in water (DDW), and commercial herbicide control was soluble in formulation B (Table 4). Application was conducted with an industrial sprayer (TeeJet 6502E nozzle) at a rate of 2 kg/ha and spray volume of […]. Pre-emergence advanced dose response experiment application was conducted at six rates between 1-0.0312 kg/ha and spray volume of […]. Percentage of emergence was evaluated at 15 DAA. Visual phenotyping was recorded using a scale of 0-6 (0: no visible effect, 6: maximum effect) at 18 DAA. All experiments included an untreated control, a solvent control and a positive control (commercial herbicide A.I.). Statistical analysis for visual phenotyping determined by a median value of ≥3.5 and Fisher test (pval≤0.05). Statistical analysis for plant emergence determined by % emergence ≥50 and T test (pval≤0.05), as well as Wilcox test (pval≤0.05).
# SETVI = test: In-planta LTP pre-emergence, visual phenotype; format: in vivo, Setaria viridis; settings: Setaria viridis, 432 h, monocot
# In short: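 Compounds in water sprayed pre-emergence one day after sowing 10-15 seeds per pot in washed sand, at 2 kg/ha or six rates from 1-0.0312 kg/ha. Greenhouse 26/20° C day/night. Visual phenotype scored 0-6 at 18 DAA; effect called at median ≥3.5 with Fisher test p≤0.05.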
# AMAPA = test: In-planta LTP pre-emergence, visual phenotype; format: in vivo, Amaranthus palmeri; settings: dicot; for pest or weed control at 2000 g/ha: Amaranthus palmeri, 432 h, read-out: IG Inhibited growth (% effect)
# Description: as §1
# [1] = in vitro thermal shift (binding of compound to the target); settings: thermal shift caused by binding of the compound to the (unnamed) target
# Arabidopsis thaliana [2] = test: HTPS - Dicot - Pre-emergence; format: in vivo; settings: N/A: not active; for Emax: read-out: HTPS - Dicot - Pre Max effect
# Description: Arabidopsis thaliana seeds were sown in 96 well plates filled with irrigated Sweet sand (10%>clay) that is washed from salts and minerals using tap water. 5-10 seeds were sown in the center of each well. 7-8 days post sowing, at 2 true leaves stage, thinning out was performed to ensure that compound application is done on a single plant per well. The plates were placed in a controlled greenhouse in a random order inside a bath which allows flooding irrigation with tap water supplemented with a fertilizer. Applied compounds were dissolved into a final solution of 50% acetone, 49.9% DDW, 0.1% tween-20. A 96 well plate was used as a stock plate for preparing application solutions for 8 repeats. Each row contained different concentrations per chemical. Maximal concentration for application was 1.5 Kg/Ha and dilution factor is 2.5. Chemical application was performed one day after thinning out in a chemical hood. 5 μL applied on first two true leaves in each well using 12 channel pipettes. Data collection: RGB (red, green, blue) data for green area per well was documented using camera. Data is collected at a few time points during the experiment: one day after thinning and before chemical application, two-, six- or nine-days post application. During the last two documentations, visual phenotyping was performed. Data analysis: Given RGB results and visual phenotype scores, a student t-test conducted to compare between treatment and control performance for continuous data (RGB) and Fisher exact test to analyze the non-continuous data (phenotypic scores). Dose-Response curves are generated for each treatment to infer ED50 and max. inhibition parameters, using treatment's log concentration range as the […] variable and normalized green area. These experiments are conducted similarly except that either Arabidopsis thaliana or Eragrostis teff seeds were sowed (5-10 or 5-7, respectively), plant thinning out was not performed, compound dissolved into a final solution of 50% acetone, 49.9% DDW, compound application was done at 30 μL volume per well directly on sowed soil before plant emergence and data was collected 10 or 7 days after chemical application on dicot or monocot plants, respectively. Plate imaging performed at 11 and 18 DAA. RGB data for green area per well was documented and used to extract % inhibition. Dose-Response curves were built for each treatment to infer ED50, ED75 and ED90 parameters, using treatment's log concentration range as the independent variable and normalized green area as the dependent variable. Treatments were compared to controls performance given RGB results and using student's t-test (p-val≤0.05).
# Arabidopsis thaliana [3] = test: HTPS (high throughput on soil) - Dicot - Post-emergence; format: in vivo; settings: N/A: not active; for Emax: read-out: HTPS - Dicot - Post Max effect; for HTPS - Dicot - Post ED50: from normalized green area
# In short: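 Single plants per well in sand, greenhouse-grown; at 2-true-leaf stage 5 μL compound in 50% acetone/0.1% tween-20 applied to leaves, top dose 1.5 Kg/Ha, 2.5-fold dilutions, 8 repeats. Green area imaged (11 and 18 DAA) for % inhibition; ED50/ED75/ED90 fitted from dose-response, t-test versus controls.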
# [4] = read-out: DE Disturbed emergence (% effect)
# [5] = read-out: IG Inhibited growth (% effect)
SMILES,DE Disturbed emergence (% effect) (LOLPE),pest or weed control at 2000 g/ha (SETVI; [4]) [%],pest or weed control at 2000 g/ha (SETVI; [5]) [%],pest or weed control at 2000 g/ha (AMAPA) [%],DAB Disturbed apical bud (% effect) (AMAPA),in vitro Thermal Shift [1] [°C],HTPS - Dicot - Pre ED50 (Arabidopsis thaliana [2]) [g/ha],Emax (Arabidopsis thaliana [2]) [%],Emax (Arabidopsis thaliana [3]) [%],HTPS - Dicot - Post ED50 (Arabidopsis thaliana [3]) [g/ha],IG Inhibited growth (% effect) (LOLPE)
CC(N)COc1cccc(C(=O)O)c1 (stereo not drawn) [Compound 106],DE (60) %,100,100,60,"DAB (60), %",13,33,100,100,102,
C#CCOC(=O)c1cccc(OCC(C)N)c1 (stereo not drawn) [Compound 111],,100,100,60,,4,24,100,100,51,
CCCCOC(=O)c1cccc(OCC(C)N)c1 (stereo not drawn) [Compound 112],,80,100,60,,4,20,100,100,300,IG (40) %
C[C@@H](N)COc1cccc(C(=O)O)c1 [Compound 154],,100,,60,,13,,,100,16,IG (60) %
